Several values for one entry are separate records, joined by “and”; a condition that tells them apart may be missing. Equal values may be shown once.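 Cells were grown in 96-well plates and exposed to each compound for 48 hours at five concentrations; endpoints were interpolated linearly between bracketing concentrations, or set to the highest concentration if not reached. GI50 is the concentration that inhibits growth by half. TGI denotes the concentration required for complete inhibition of growth.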
Assays:
Test in all cases: NCI-60 cell line screen, 48 h
[1] = system: A549 NSCLC
[2] = system: DU-145 prostate
[3] = system: HCT-15 colon
[4] = system: HS 578T breast
[5] = system: MOLT-4 leukemia
[6] = system: OVCAR-4 ovarian
[7] = system: SK-MEL-28 melanoma
[8] = system: SNB-75 CNS
[9] = system: UACC-257 melanoma
[10] = system: K-562 leukemia

Row | Compound | GI50 [1] | TGI [1] | GI50 [2] | TGI [2] [µM] | GI50 [3] [µM] | TGI [3] [µM] | GI50 [4] [µM] | GI50 [5] [µM] | GI50 [6] | TGI [6] | GI50 [7] [µM] | TGI [7] | GI50 [8] [µM] | TGI [8] | GI50 [9] [µM] | TGI [10] [µM] | TGI [5] [µM] | TGI [9] [µM] | TGI [4] [µM] | GI50 [10]
1 | S=C(N/N=C(/c1ccccc1)c1ccccn1)Nc1cccc(Cl)c1 | 1.82 µM | 5.56 µM and 7.58 µM | 2.97 µM | 9.43 | 0.142 | 5.06 | 0.0125 | 0.00303 | 1.1 µM | 3.67 µM and 15.9 µM | 2.09 | 7.69 µM and 6.18 µM | 0.608 | 2.92 µM and 4.88 µM | 0.00172 |  |  |  |  | 
2 | O=C1OC2C(O)C(=O)OC2C1O (stereo not given) |  | > 100 µM |  | > 100 |  | > 100 |  |  |  | > 100 µM |  | > 100 µM |  | > 100 µM |  | > 100 | > 100 | > 100 |  | 
3 | c1ccc(C2N3CCCCC3[C@@H]3c4[nH]c5ccccc5c4CCN23)cc1 (stereo not given in full) |  | > 100 µM |  |  |  | > 100 |  |  |  | 75.6 µM |  | 70.2 µM |  | > 100 µM |  | > 100 | > 100 | > 100 |  | 
4 | CN(C)CCC1(C2=CCCC2)CC/C(=C\c2ccccc2)C1=O (stereo not given) |  | 41.9 µM |  |  |  | 26.6 |  |  |  | 31 µM |  | 38 µM |  | 35.9 µM |  | 46.5 | 39 | 28.5 |  | 
5 | CC1(C)OC(=O)C(=C2CC(c3ccccc3)c3ccccc32)C(=O)O1 (stereo not given) |  | > 100 µM |  |  |  | > 100 |  |  |  | > 100 µM |  | > 100 µM |  | > 100 µM |  | > 100 | > 100 | > 100 |  | 
6 | O=c1/c(=C/c2ccc3c(c2)OCO3)sc2nnc(-c3ccco3)n12 |  | > 100 µM |  |  |  |  |  |  |  | > 100 µM |  | > 100 µM |  | 71.2 µM |  | > 100 | > 100 | > 100 |  | 
7 | CCN1CCN(C(=O)[C@]23CCC(C)(C)C[C@@H]2C2=CC[C@@H]4[C@@]5(C)C/C(=C/c6cccnc6)C(=O)C(C)(C)[C@@H]5CC[C@@]4(C)[C@]2(C)CC3)CC1 | 2.62 µM | 13.4 µM | 1.83 µM | 3.88 | 1.08 | 2.71 | 1.83 | 1.03 | 2.17 µM | 7.85 µM | 1.48 | 2.83 µM |  |  | 1.62 | > 100 | 5.2 | 4.29 | 5.37 | 1.43 µM
8 | Cc1cccc(NC(=O)CC#N)c1Cl |  | > 100 µM |  |  |  | > 100 |  |  |  |  |  | > 100 µM |  | > 100 µM |  | > 100 | > 100 | > 100 |  | 
9 | O=C1C(Cl)=C(Nc2cccc(O)c2)C(=O)N1c1cccc(Cl)c1Cl | 15 µM | 45.9 µM | 22.7 µM | 48 | 20.7 | 56.7 | 1.71 | 2.31 | 15.6 µM | 40.5 µM | 24.4 | > 100 µM |  |  |  | 29.6 | 11.8 |  | 14.4 | 13.5 µM
10 | CCCN1CCN(c2ccc3nc(-c4ccc5nc(-c6ccc(OCC)c(OCC)c6)[nH]c5c4)[nH]c3c2)CC1 | 0.808 µM | 2.35 µM | 0.436 µM | 1.75 | 1.87 | 10.3 | 1.11 | 0.471 | 0.449 µM | 1.84 µM | 0.755 | 2.19 µM | 0.425 | 1.9 µM | 0.64 |  | 3.34 | 2.47 | 3.56 | 
11 | COc1ccc(C#CCC(OC2OC(CO)C(O)C(O)C2O)C(O)c2ccc(OC)c(OC)c2)cc1OC (stereo not given) |  | > 100 µM |  |  |  | > 100 |  |  |  | > 100 µM |  | > 100 µM |  | > 100 µM |  | > 100 | > 100 | > 100 |  | 
12 | CCC/C(=N\NC(=O)c1cc2ccccc2cc1O)C(CC)C(=O)CCC(=O)N(Cc1ccccc1)Cc1ccccc1 (stereo not given) |  | > 100 µM |  |  |  | > 100 |  |  |  | > 100 µM |  | > 100 µM |  | > 100 µM |  | 69.9 | > 100 | > 100 |  | 
13 | O=C(c1ccc2c3c(ccc(C(=O)C(F)(F)F)c13)CC2)C(F)(F)F |  | > 100 µM |  |  |  | > 100 |  |  |  | > 100 µM |  | > 100 µM |  | > 100 µM |  |  | > 100 | > 100 |  | 
14 | Cc1cc2c(cc1C)[n+](=O)c(C(=O)/C=C/c1ccccc1Cl)c(C)n2[O-] |  | > 100 µM |  |  |  | 75.3 |  |  |  | > 100 µM |  | 86.8 µM |  | 47.5 µM |  | > 100 | > 100 | 57.5 |  | 
15 | Cc1ccc(C2=C(c3ccccc3)C(O)(c3ccc(C)cc3)C(c3ccccc3)=C2c2ccc(C)cc2)cc1 |  | > 100 µM |  |  |  | > 100 |  |  |  | > 100 µM |  | > 100 µM |  |  |  | > 100 | > 100 | > 100 |  | 
16 | COc1cc(-c2cc(CCC(=O)Nc3ccccc3[N+](=O)[O-])n(-c3ccc([N+](=O)[O-])cc3[N+](=O)[O-])n2)ccc1O | > 100 µM | > 100 µM |  |  | > 10 | > 100 |  | > 100 | > 100 µM | > 100 µM | > 100 | > 100 µM | > 10 | > 100 µM |  | > 100 | > 100 | > 10 |  | > 10 µM
17 | CC(=O)OCC1OC(n2c(-c3ccccc3)c(C)c(C)c(C#N)c2=S)C(OC(C)=O)C(OC(C)=O)C1OC(C)=O (stereo not given) | 25.7 µM and > 100 µM | > 100 µM | 36.9 µM and > 100 µM | > 100 |  | > 100 |  |  | 14.8 µM and 76.1 µM | 34.1 µM and > 100 µM |  | > 100 µM |  | > 100 µM |  | > 100 | > 100 | > 100 |  | 24.8 µM and > 100 µM
18 | CCC(/C(=N\Nc1c(Cl)cc(Cl)cc1Cl)c1ccccc1)n1ccnc1C (stereo not given) |  | 38.1 µM |  |  |  | 24.4 |  |  |  | 30 µM |  | 29.7 µM |  | 29.5 µM |  | 51.6 | 37.1 | 28.3 |  | 
19 | O=C1c2ccccc2C(=O)c2c1ccc1c2OCO1 |  | > 100 µM |  | > 100 |  | > 100 |  |  |  | > 100 µM |  | > 100 µM |  | > 100 µM |  |  | > 100 | > 100 | > 100 | 
20 | CC1=C(C(=O)Nc2ccccc2C)C(c2ccc(C3C(C(=O)Nc4ccccc4C)=CNC=C3C(=O)Nc3ccccc3C)cc2)C(C(=O)Nc2ccccc2C)=C(C)N1 |  | > 100 µM |  |  |  | 41 |  |  |  | 22 µM |  | 36.3 µM |  | 54.8 µM |  | > 73.4 | > 40.3 | 33.2 |  | 
